# Data taken from the SangsterLogP compilation.
# Experiments:
# [1] = method code SF-GLC, from DOI: 10.1016/0045-6535(83)90264-3
# [2] = method code SF-AS, from DOI: 10.1002/jhet.5570150704
# [3] = method code SF-AS, from DOI: 10.1016/0006-2952(65)90227-3, PMID: 14322976; details: pH 6.8
# [4] = not given; remark: listed apart in the source
# [5] = method code SF-RC, from PMID: 3794812
# [6] = not given; remark: listed apart in the source
# [7] = method code SF-HPLC, from Blakemore, C.; Brown, H.; Durant, J.; Emmett, C.; Ganellin, R.; Parsons, E.; Rasmussen, C. (1980). SK&F 92994: a new histamine H2-receptor antagonist. COMMUNICATIONS: Part II. Br. J. Pharmacol., …
# [8] = method code SF-AS, from DOI: 10.1021/jm00069a002, PMID: 8355246; details: pH 7.4
# [9] = method code SF-HPLC, from DOI: 10.1002/jat.2550130210, PMID: 8486911; details: pH 13.0
# [10] = method code SF-GLC, from DOI: 10.1021/j100260a019
# [11] = method code SF-MS, from DOI: 10.1016/j.fluid.2014.01.017; details: pH 7.6
# [12] = not given; remark: listed apart in the source
# [13] = method code SF-GLC,AS, from DOI: 10.2134/jeq1981.00472425001000030028x
# [14] = method code SF-GLC, from DOI: 10.1016/s0003-2670(00)84505-5
# [15] = method code SF-AS, from DOI: 10.1007/bf02922495
# [16] = not given; remark: listed apart in the source
# [17] = not given; remark: listed apart in the source
# [18] = not given; remark: listed apart in the source
# [19] = method code SF, from DOI: 10.1016/0378-5173(87)90234-1
# [20] = method code SF, from DOI: 10.1002/ps.2780340212; details: pH 7.0
# [21] = method code SF, from DOI: 10.1002/em.2850190108, PMID: 1732104
# [22] = not given; remark: listed apart in the source
# [23] = not given; remark: listed apart in the source
# [24] = not given; remark: listed apart in the source
# [25] = method code SF-GLC, from DOI: 10.1007/bf00343116, PMID: 4026577
# [26] = method code SF-RC, from DOI: 10.1016/0014-2999(79)90231-0, PMID: 527663
# [27] = not given; remark: listed apart in the source
# [28] = method code SF-AS, from DOI: 10.1016/j.ejmech.2003.11.003, PMID: 14987836
# [29] = method code SF-AS, from DOI: 10.1007/s001289900721, PMID: 9657823
# [30] = method code SF-C, from DOI: 10.1021/ja00901a033
# [31] = method code SF-AS, from Frater-Schröder, M.; Alder, S.; Zbinden, G. (1976). Neurotoxic effects of pyridoxine and analogs in rats. Proc. Eur. Soc. Toxicol, 17, 277-284.; details: pH 7.4
# [32] = method code SF-RC, from DOI: 10.1182/blood.v76.11.2389.bloodjournal76112389, PMID: 2257308; details: pH 7.4
# [33] = not given; remark: listed apart in the source
# [34] = not given; remark: listed apart in the source
# [35] = not given; remark: listed apart in the source
# [36] = not given; remark: listed apart in the source
# [37] = method code SF-AS, from DOI: 10.1021/jm00304a030, PMID: 5793164; details: pH 7.4
# [38] = method code SF-RC, from DOI: 10.1002/ps.2780130506
# [39] = method code SF, from Korenman, Y. (1975). Extraction of hydroxybenzoic acids and some of their derivatives from aqueous solution. Zh. Prikl. Khim., 48(6)1472-1474.; details: pH 2.0
# [40] = not given; remark: listed apart in the source
smiles,measurement,setting,value
CCN(CC)C(C)=O,logP,,0.37
O=C(O)c1c(C(=O)O)c(C(=O)O)c(C(=O)O)c(C(=O)O)c1C(=O)O,logP,[1],-1.45
Cc1nc(-c2ccccn2)no1,logP,[2],0.79
CC(C)c1ccccc(=O)c1O,logD,[3],0.96
Brc1ccccc1-c1nnn[nH]1,logP,[4],1.81
COCC(O)Cn1c([N+](=O)[O-])nc(Br)c1Br (configuration not stated),logP,[5],1.02
CCCCCC(CCC)C(=O)O (configuration not stated),logP,[6],3.2
CN(Cc1cccc(Br)c1)N=O,logP,[7],1.65
CN(Cc1ccc(Br)cc1)N=O,logP,[7],1.57
CCCCNC(=O)CCn1ccc(=O)c(O)c1C,logD,[8],-0.1
CC(C)CNCC(C)C,logD,[9],2.67
CC1CCC(C)O1 (configuration not stated),logP,[10],1.22
CCCCCCCC=O,logD,[11],2.53
COc1cc(Cl)c(Cl)c(Cl)c1,logP,[12],4.1
CCCNc1c([N+](=O)[O-])cc(C(F)(F)F)cc1[N+](=O)[O-],logP,[13],3.65
COc1cc(Cl)c(Cl)cc1O,logP,[14],3.19
c1ccc(-c2nnn[nH]2)cc1,logP,[4],1.5
Cc1ccc(C=C(C#N)C#N)o1,logP,[15],2.03
C=CCNCC=C,logD,[9],1.08
N#Cc1ccccc1,logP,[16],1.5
CC(CS)C(=O)N1CCC[C@H]1C(=O)O (some centres not stated),logP,[17],0.42
CC(=O)c1ccccc1N,logP,[18],1.25
O=C(OC1CCCCC1)n1cc(F)c(=O)[nH]c1=O,logD,[19]; pH 4.0,1.42
CC(C)(C)C(=O)C(Oc1ccc(Cl)cc1)n1cncn1 (configuration not stated),logD,[20],2.9
O=[N+]([O-])c1cccc2cccc([N+](=O)[O-])c12,logP,[21],2.52
O=C(O)c1cccc(O)c1,logP,[22],1.39
NS(=O)(=O)c1nnc(-c2ccccc2Cl)s1,logP,[23],1.43
Cc1cccc(C(=O)O)n1,logP,[24],-1.22
N#CCCCCCCC#N,logP,[25],0.59
O=C(O)[C@H]1O[C@H](O)[C@H](O)[C@@H](O)[C@@H]1O,logD,[26]; pH 1.0,-2.57
Cc1ccccc1[N+](=O)[O-],logP,,2.17
NC(=O)c1ccccc1C(N)=O,logP,[27],1.08
CC(=O)c1ccccc1[N+](=O)[O-],logP,[21],1.53
COC(=O)[C@@H]1CCCN1S(=O)(=O)N(CCCl)N=O,logP,[28],-0.19
COc1ccc(OC)c(C=O)c1,logP,[29],1.91
Cc1ccc(NC(N)=O)cc1,logD,[20],0.8
CC(=O)c1ccc(OCC(=O)O)cc1,logP,[30],1.08
COc1ccc(N)cc1,logP,[18],0.98
Cc1ncc(CO)c(C=O)c1O,logD,[31],-0.82
CCc1c(O)c(=O)ccn1C,logD,[32],-0.3
Nc1c([N+](=O)[O-])cc(C(F)(F)F)cc1[N+](=O)[O-],logP,[13],2.29
CSc1nc2ccccc2s1,logP,[1],3.15
O=C(O)c1ccccc1Br,logP,[22],2.19
O=[N+]([O-])C1NC=CN1C1OC(CI)C(O)C1O (configuration not stated),logP,[33],0.7
NS(=O)(=O)c1cc2c(cc1Cl)NC(C(Cl)Cl)NS2(=O)=O (configuration not stated),logP,[17],0.64
Cc1c(Cl)cccc1[N+](=O)[O-],logP,[34],3.09
CCC(=O)n1c(=O)[nH]cc(F)c1=O,logD,[19]; pH 7.4,-0.21
Cc1cccc(C)c1,logP,[16],3.37
CN(C)c1cc[n+]([O-])cc1,logP,[35],-0.9
Cn1cnc2c1c(=O)[nH]c(=O)n2C,logP,[36],-0.82
O=C1Cc2ccccc2N1,logD,[37],1.15
CC(C)COCC(C)C,logP,[10],2.78
CCOc1cc(Cl)c(Cl)c(Cl)c1,logP,[12],4.61
O=NN(CCCl)S(=O)(=O)N1CCCCC1,logP,[28],1.03
Cc1cccc([N+](=O)[O-])c1,logP,[34],2.4
CSc1cccc(NC(N)=O)c1,logP,[38],1.57
N#CCCCCCC#N,logP,[25],0.05
CNC(=O)OCc1cccc(COC(=O)NC)n1,logP,[2],0.24
O=C(O)COc1ccc(Br)cc1,logP,[30],2.45
O=C(O)c1cc(Br)ccc1O,logD,[39],2.87
COCC(O)Cn1c(Br)cnc1[N+](=O)[O-] (configuration not stated),logP,[5],0.16
COc1c(O)c(Cl)c(Cl)c(Cl)c1Cl,logP,[14],4.42
Cc1ncc(CO)c(CO)c1O,logD,[31],-0.77
N#CC(C#N)=Cc1ccc(Br)o1,logP,[15],2.28
NC(=O)Nc1ccc(Cl)cc1,logP,[38],1.8
O=Cc1cc(O)ccc1O,logP,[29],0.54
CC(=O)CCCCn1c(=O)c2c(ncn2C)n(C)c1=O,logP,[36],0.29
CCc1[nH]ccc(=O)c1O,logD,[8],0.05
O=C(O)c1cccc(C(=O)O)n1,logP,[24],0.45
O=C(NCCO)c1cccnc1,logP,[40],-0.11
CCC(c1ccccc1)c1c(O)c2ccccc2oc1=O (configuration not stated),logP,[26],3.62
COCCn1ccc(=O)c(O)c1C,logD,[32],-0.52
COc1cccc(C(=O)O)c1,logP,[27],1.9
O=C(O)c1ccc(O)c(O)c1O,logD,[39],1.05
CCCC/C=C/C=O,logD,[11],2.06
[O-][n+]1ccc(-c2ccccc2)cc1,logP,[35],0.93
NS(=O)(=O)c1nnc(NS(=O)(=O)c2ccccc2)s1,logP,[23],0.22
O=Nc1ccc(O)c(=O)cc1,logD,[3],0.83
c1ccc2[nH]ncc2c1,logD,[37],1.82
CCC(CC)C(=O)O,logP,[6],1.68
CC(C)NC(=O)c1cccnc1,logP,[40],0.59
O=[N+]([O-])c1nccn1C1OCC(I)CC1O (configuration not stated),logP,[33],-0.05
